ChEMBL document CHEMBL1201862, “PubChem BioAssay data set” (2004)
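Protocol summary: plate cells (96-well), add compound at 5 concentrations, incubate 48 h, interpolate endpoints linearly. GI50 = concentration required for 50% inhibition of growth.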 Calls of active or inactive are those of the source. No stated cut-off is given here; in the data, active = GI50 up to about 1.1 µM and inactive = higher.

Key:
Assay in all cases: NCI tumour cell line growth inhibition, 48 h
[1] = system: EKVX
[2] = system: HCT-15
[3] = system: HOP-62
[4] = system: HT-29
[5] = system: MCF7
[6] = system: MDA-MB-435
[7] = system: NCI/ADR-RES
[8] = system: OVCAR-3
[9] = system: OVCAR-8
[10] = system: SF-295
[11] = system: SF-539
[12] = system: SK-MEL-5
[13] = system: SK-OV-3
[14] = system: SR
[15] = system: SW-620
[16] = system: T47D
[17] = system: U-251
[18] = system: HCC 2998
[19] = system: SF-268
[20] = system: Hs-578T

Row | SMILES | GI50 [1] | GI50 [2] | GI50 [3] | GI50 [4] | GI50 [5] | GI50 [6] | GI50 [7] | GI50 [8] | GI50 [9] | GI50 [10] | GI50 [11] | GI50 [12] | GI50 [13] | GI50 [14] | GI50 [15] | GI50 [16] | GI50 [17] | GI50 [18] | GI50 [19] | GI50 [20]
1 | O=S(=O)(c1ccccc1)n1c(C(O)c2ccncc2)cc2ccccc21 (stereo unspecified) | 38.5 µM (inactive) | 33.7 µM | > 100 µM (inactive) | 44.6 µM (inactive) | 20.9 µM (inactive) | 36.3 µM (inactive) | 35.2 µM (inactive) | 46.8 µM (inactive) | 50.6 µM (inactive) | 48.5 µM (inactive) | > 100 µM (inactive) | 16.8 µM (inactive) | 44.4 µM (inactive) | 38.5 µM (inactive) | 32 µM (inactive) | 36 µM (inactive) | 41 µM (inactive) |  |  | 
2 | O=C(NNC(=S)NCc1ccccc1)c1csc(NC(=S)NC2CCCCC2)n1 | 19.2 µM (inactive) | 37.5 µM | 64.1 µM (inactive) | 3.42 µM (inactive) | 29.6 µM (inactive) | 26.7 µM (inactive) | 31.3 µM (inactive) | 42.1 µM (inactive) | 39.4 µM (inactive) | 42.1 µM (inactive) | 38 µM (inactive) | 13.8 µM (inactive) | 50.6 µM (inactive) | 31.5 µM (inactive) | 32.5 µM (inactive) | 30 µM (inactive) | 33.3 µM (inactive) | 37.3 µM (inactive) | 27.6 µM (inactive) | 
3 | CCOC(=O)c1c(C)cc(=O)n2c1[nH]c1ccccc12 | > 100 µM (inactive) | 50.9 µM |  | > 100 µM (inactive) | > 100 µM (inactive) |  | > 100 µM (inactive) | > 100 µM (inactive) | > 100 µM (inactive) | 74.6 µM (inactive) | 31 µM (inactive) | > 100 µM (inactive) | > 100 µM (inactive) |  | > 100 µM (inactive) | > 100 µM (inactive) | 34.6 µM (inactive) | 78.7 µM (inactive) |  | 
4 | CCOC(=O)CCC(NC(=O)OCc1ccccc1)C(=O)NC(CCC(=O)OCC)C(=O)NC(CCC(=O)OCC)C(=O)NNC(=O)OC(C)(C)C (stereo unspecified) | > 100 µM (inactive) | > 100 µM | > 100 µM (inactive) | > 100 µM (inactive) | > 100 µM (inactive) |  |  |  | > 100 µM (inactive) |  |  | > 100 µM (inactive) |  | > 100 µM (inactive) | > 100 µM (inactive) |  | > 100 µM (inactive) | > 100 µM (inactive) |  | > 100 µM (inactive)
5 | CC/N=C(/C#N)NCC | > 100 µM (inactive) | 46.2 µM | > 100 µM (inactive) | 40.2 µM (inactive) |  |  |  | > 100 µM (inactive) | > 100 µM (inactive) | > 100 µM (inactive) | > 100 µM (inactive) | > 100 µM (inactive) | > 100 µM (inactive) | > 100 µM (inactive) | 18.7 µM (inactive) |  | 96.4 µM (inactive) | > 100 µM (inactive) | > 100 µM (inactive) | 
6 | CC1=C(C(=O)NNC(=O)Cc2ccccc2)CC(C(=O)NNC(=O)Cc2ccccc2)=C(C)N1 | > 100 µM (inactive) | > 100 µM | > 100 µM (inactive) | > 100 µM (inactive) | > 100 µM (inactive) | 89.1 µM (inactive) | > 100 µM (inactive) | > 100 µM (inactive) | > 100 µM (inactive) | > 100 µM (inactive) | > 100 µM (inactive) | > 100 µM (inactive) | > 100 µM (inactive) |  | > 100 µM (inactive) | 54.8 µM (inactive) | > 100 µM (inactive) | > 100 µM (inactive) | > 100 µM (inactive) | 
7 | Cn1c(C2CCCc3c2c2ccccc2n3C)cc2ccccc21 (stereo unspecified) | 115 µM (inactive) | 43.1 µM | 286 µM (inactive) | 83 µM (inactive) |  |  |  | 36.2 µM (inactive) | > 318 µM (inactive) | 70 µM (inactive) | > 318 µM (inactive) | 72.9 µM (inactive) | 100 µM (inactive) | 71.9 µM (inactive) | 78 µM (inactive) |  | 174 µM (inactive) | 186 µM (inactive) | 110 µM (inactive) | 
8 | C/C(=N/NC(N)=S)C(CN(C)C)C(C1=C(O)c2ccccc2OC1)c1ccccc1 (stereo unspecified) | > 100 µM (inactive) | > 100 µM | > 100 µM (inactive) | > 100 µM (inactive) |  |  |  | > 100 µM (inactive) | > 100 µM (inactive) | > 100 µM (inactive) | > 100 µM (inactive) | > 100 µM (inactive) | > 100 µM (inactive) | > 100 µM (inactive) | > 100 µM (inactive) |  | > 100 µM (inactive) | > 100 µM (inactive) | > 100 µM (inactive) | 
9 | CCCCCCCCCCCC(=O)CC(=O)c1c(O)cccc1O | 17.8 µM (inactive) | 22.6 µM | 23.7 µM (inactive) | 17.5 µM (inactive) |  |  |  | 19.8 µM (inactive) | 16.6 µM (inactive) | 19.4 µM (inactive) | 18.5 µM (inactive) | 19.1 µM (inactive) | 30.4 µM (inactive) | 19.4 µM (inactive) | 17.1 µM (inactive) |  | 17.7 µM (inactive) | 29 µM (inactive) | 16.4 µM (inactive) | 
